# Assays:
# Assay type in all cases: in vivo
# corn (Zea mays) [1] = experiment: Test A postemergence application, visual injury rating 0-100; details: 10 days
# Excerpt: (§1) Seeds of plant species selected from barnyardgrass (Echinochloa crus-galli), blackgrass (Alopecurus myosuroides), corn (Zea mays), foxtail, giant (giant foxtail, Setaria faberi), green foxtail (Setaria viridis), goosegrass (Eleusine indica), kochia (Bassia scoparia), oat, wild (wild oat, Avena fatua), palmer (palmer amaranth, palmer pigweed, Amaranthus palmeri), ragweed (common ragweed, Ambrosia artemisiifolia), ryegrass, Italian (italian ryegrass, Lolium multiflorum), soybean (Glycine max) and wheat (Triticum aestivum) were planted into a blend of loam soil and sand and treated preemergence with a directed soil spray using test chemicals formulated in a non-phytotoxic solvent mixture which included a surfactant.
# (§2) At the same time, plants selected from these crops and weed species and also galium (catchweed bedstraw, Galium aparine) and horseweed (Erigeron canadensis) were planted in pots containing the same blend of loam soil and sand and treated with postemergence applications of test chemicals formulated in the same manner. Plants ranged in height from 2 to 10 cm and were in the one- to two-leaf stage for the postemergence treatment. Treated plants and untreated controls were maintained in a greenhouse for 10 days, after which time all treated plants were compared to untreated controls and visually evaluated for injury. Plant response ratings, summarized in Table A, are based on a 0 to 100 scale where 0 is no effect and 100 is complete control. A dash (-) response means no test result.
# kochia (Bassia scoparia) [2] = experiment: as above; details: 10 days
# Excerpt: as §1, §2
# [3] = system: blackgrass (Alopecurus myosuroides); experiment: as above; details: 10 days
# Excerpt: as §1, §2
# [4] = system: ryegrass, Italian (italian ryegrass, Lolium multiflorum); experiment: as above; details: 10 days
# Excerpt: as §1, §2
# [5] = system: green foxtail (Setaria viridis); experiment: as above; details: 10 days
# Excerpt: as §1, §2
# [6] = system: wheat (Triticum aestivum); experiment: as above; details: 10 days
# Excerpt: as §1, §2
# [7] = system: barnyardgrass (Echinochloa crus-galli); experiment: as above; details: 10 days
# Excerpt: as §1, §2
# [8] = system: oat, wild (wild oat, Avena fatua); experiment: as above; details: 10 days
# Excerpt: as §1, §2
# [9] = system: horseweed (Erigeron canadensis); experiment: as above; details: 10 days
# Excerpt: as §1, §2
# [10] = system: ragweed (common ragweed, Ambrosia artemisiifolia); experiment: as above; details: 10 days
# Excerpt: as §1, §2
# [11] = system: palmer (palmer amaranth, palmer pigweed, Amaranthus palmeri); experiment: as above; details: 10 days
# Excerpt: as §1, §2
# soybean (Glycine max) [12] = experiment: as above; details: 10 days
# Excerpt: as §1, §2
# rice (Oryza sativa) = experiment: Test B flooded paddy test, visual plant response rating 0-100; details: 250 g ai/ha, Flood, applied to paddy water, evaluated after 13 days
# Description: (§3) Plant species in the flooded paddy test selected from barnyardgrass (Echinochloa crusgalli), ducksalad (Heteranthera limosa), rice (Oryza sativa), and sedge, umbrella (small-flower umbrella sedge, Cyperus difformis) were grown to the 2-leaf stage for testing. At time of treatment, test pots were flooded to 3 cm above the soil surface, treated by application of test compounds directly to the paddy water, and then maintained at that water depth for the duration of the test. Treated plants and controls were maintained in a greenhouse for 13 days, after which time all species were compared to controls and visually evaluated. […] A dash (-) response means no test result.
# [13] = system: sedge, umbrella (small-flower umbrella sedge, Cyperus difformis); experiment: as above; details: 250 g ai/ha, Flood, applied to paddy water, evaluated after 13 days
# Description: as §3
# [14] = system: ducksalad (Heteranthera limosa); experiment: as above; details: 250 g ai/ha, Flood, applied to paddy water, evaluated after 13 days
# Description: as §3
# [15] = system: barnyardgrass (Echinochloa crusgalli); experiment: as above; details: 250 g ai/ha, Flood, applied to paddy water, evaluated after 13 days
# Description: as §3
# corn (Zea mays) [16] = experiment: Test A preemergence soil spray, visual injury rating 0-100; details: 10 days, 0 = no effect, 100 = complete control
# Excerpt: as §1, §2
# kochia (Bassia scoparia) [17] = experiment: as above; details: 10 days, 0 = no effect, 100 = complete control
# Excerpt: as §1, §2
# [18] = system: blackgrass (Alopecurus myosuroides); experiment: as above; details: 10 days, 0 = no effect, 100 = complete control
# Excerpt: as §1, §2
# [19] = system: ryegrass, Italian (italian ryegrass, Lolium multiflorum); experiment: as above; details: 10 days, 0 = no effect, 100 = complete control
# Excerpt: as §1, §2
# [20] = system: green foxtail (Setaria viridis); experiment: as above; details: 10 days, 0 = no effect, 100 = complete control
# Excerpt: as §1, §2
# [21] = system: wheat (Triticum aestivum); experiment: as above; details: 10 days, 0 = no effect, 100 = complete control
# Excerpt: as §1, §2
# [22] = system: barnyardgrass (Echinochloa crus-galli); experiment: as above; details: 10 days, 0 = no effect, 100 = complete control
# Excerpt: as §1, §2
# [23] = system: oat, wild (wild oat, Avena fatua); experiment: as above; details: 10 days, 0 = no effect, 100 = complete control
# Excerpt: as §1, §2
# [24] = system: ragweed (common ragweed, Ambrosia artemisiifolia); experiment: as above; details: 10 days, 0 = no effect, 100 = complete control
# Excerpt: as §1, §2
# [25] = system: palmer (palmer amaranth, palmer pigweed, Amaranthus palmeri); experiment: as above; details: 10 days, 0 = no effect, 100 = complete control
# Excerpt: as §1, §2
# soybean (Glycine max) [26] = experiment: as above; details: 10 days, 0 = no effect, 100 = complete control
# Excerpt: as §1, §2
# [27] = 31 g ai/ha, postemergence, 0 = no effect, 100 = complete control
# [28] = Postemergence, 125 g ai/ha, 0 is no effect, 100 is complete control
compound,measurement,setting,value
"COC(=O)C1=CC[C@H](NC(=O)C2(C)CN(c3cc(F)cc(F)c3)C(=O)O2)C1 (mixture of isomers) [Compound 37, Methyl (4S)-4-[[[3-(3,5-difluorophenyl)-5-methyl-2-oxo-5-oxazolidinyl]carbonyl]amino]-1-cyclopentene-1-carboxylate]",Corn plant response rating (0-100),corn (Zea mays) [1]; [27],100
same,Corn plant response rating (0 to 100 scale),corn (Zea mays) [1]; [28],100
same,Kochia plant response rating (0-100),kochia (Bassia scoparia) [2]; [27],80
same,Kochia plant response rating (0 to 100 scale),kochia (Bassia scoparia) [2]; [28],80
same,Blackgrass plant response rating (0-100),[3]; [27],80
same,Blackgrass plant response rating (0 to 100 scale),[3]; [28],90
same,"Ryegrass, Italian plant response rating (0-100)",[4]; [27],80
same,"Ryegrass, Italian plant response rating (0 to 100 scale)",[4]; [28],90
same,"Foxtail, Green plant response rating (0-100)",[5]; [27],90
same,"Foxtail, Green plant response rating (0 to 100 scale)",[5]; [28],90
same,Wheat plant response rating (0-100),[6]; [27],90
same,Wheat plant response rating (0 to 100 scale),[6]; [28],90
same,Barnyardgrass plant response rating (0-100),[7]; [27],100
same,Barnyardgrass plant response rating (0 to 100 scale),[7]; [28],100
same,"Oat, Wild plant response rating (0-100)",[8]; [27],90
same,"Oat, Wild plant response rating (0 to 100 scale)",[8]; [28],90
same,Horseweed plant response rating (0-100),[9]; [27],10
same,Horseweed plant response rating (0 to 100 scale),[9]; [28],70
same,Ragweed plant response rating (0-100),[10]; [27],20
same,Ragweed plant response rating (0 to 100 scale),[10]; [28],50
same,"Amaranth, Palmer plant response rating (0-100)",[11]; [27],70
same,"Amaranth, Palmer / Pigweed, Palmer plant response rating (0 to 100 scale)",[11]; [28],90
same,Soybean plant response rating (0-100),soybean (Glycine max) [12]; [27],70
same,Soybean plant response rating (0 to 100 scale),soybean (Glycine max) [12]; [28],80
same,"Plant response rating, Rice (0 to 100 scale, 0 is no effect and 100 is complete control)",rice (Oryza sativa),65
same,"Plant response rating, Sedge, Umbrella (0 to 100 scale, 0 is no effect and 100 is complete control)",[13],100
same,"Plant response rating, Ducksalad (0 to 100 scale, 0 is no effect and 100 is complete control)",[14],95
same,"Plant response rating, Barnyardgrass (0 to 100 scale, 0 is no effect and 100 is complete control)",[15],75
same,Corn plant response rating (0-100),corn (Zea mays) [16]; 31 g ai/ha,10
same,Corn plant response rating (0 to 100 scale),corn (Zea mays) [16]; 125 g ai/ha,80
same,Kochia plant response rating (0-100),kochia (Bassia scoparia) [17]; 31 g ai/ha,0
same,Kochia plant response rating (0 to 100 scale),kochia (Bassia scoparia) [17]; 125 g ai/ha,20
same,Blackgrass plant response rating (0-100),[18]; 31 g ai/ha,0
same,Blackgrass plant response rating (0 to 100 scale),[18]; 125 g ai/ha,20
same,"Ryegrass, Italian plant response rating (0-100)",[19]; 31 g ai/ha,70
same,"Ryegrass, Italian plant response rating (0 to 100 scale)",[19]; 125 g ai/ha,90
same,"Foxtail, Green plant response rating (0-100)",[20]; 31 g ai/ha,0
same,"Foxtail, Green plant response rating (0 to 100 scale)",[20]; 125 g ai/ha,90
same,Wheat plant response rating (0-100),[21]; 31 g ai/ha,40
same,Wheat plant response rating (0 to 100 scale),[21]; 125 g ai/ha,80
same,Barnyardgrass plant response rating (0-100),[22]; 31 g ai/ha,30
same,Barnyardgrass plant response rating (0 to 100 scale),[22]; 125 g ai/ha,90
same,"Oat, Wild plant response rating (0-100)",[23]; 31 g ai/ha,20
same,"Oat, Wild plant response rating (0 to 100 scale)",[23]; 125 g ai/ha,60
same,Ragweed plant response rating (0-100),[24]; 31 g ai/ha,60
same,Ragweed plant response rating (0 to 100 scale),[24]; 125 g ai/ha,0
same,"Amaranth, Palmer plant response rating (0-100)",[25]; 31 g ai/ha,10
same,"Amaranth, Palmer plant response rating (0 to 100 scale)",[25]; 125 g ai/ha,80
same,Soybean plant response rating (0-100),soybean (Glycine max) [26]; 31 g ai/ha,10
same,Soybean plant response rating (0 to 100 scale),soybean (Glycine max) [26]; 125 g ai/ha,70

# From patent US20260285850A1, “SUBSTITUTED OXAZOLIDINONES AND IMIDAZOLINONES AS HERBICIDES” (FMC CORPORATION, priority 2023, published 2026)
